In PMC6111308, “Antimycobacterial, Enzyme Inhibition, and Molecular Interaction Studies of Psoromic Acid in Mycobacterium tuberculosis: Efficacy and Safety Investigations” (Journal of Clinical Medicine, 2018):

Molecular target: T1, arylamine-N-acetyltransferase (TBNAT) (Mycobacterium tuberculosis, UniProt P9WJI5)
T1 construct: gene nat
T1 sequence (P9WJI5 1-283): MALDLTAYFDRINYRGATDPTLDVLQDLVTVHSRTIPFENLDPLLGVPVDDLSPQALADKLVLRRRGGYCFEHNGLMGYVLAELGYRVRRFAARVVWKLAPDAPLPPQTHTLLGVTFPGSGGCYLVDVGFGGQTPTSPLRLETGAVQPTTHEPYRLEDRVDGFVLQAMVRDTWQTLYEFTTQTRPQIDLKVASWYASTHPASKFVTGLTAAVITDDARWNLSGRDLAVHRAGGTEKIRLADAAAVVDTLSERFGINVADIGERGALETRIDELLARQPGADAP
Assay: biochemical

COc1cc(C(=O)O)c2c(c1C)OC(=O)c1c(C)cc(O)c(C=O)c1O2 [PA, psoromic acid]
IC50: 8.7 µM

NNC(=O)c1ccncc1 [INH, isoniazid]
IC50: 6.2 µM
